{"source": "patent US12077503B2", "about": "“Substituted cyclic amides and their use as herbicides” (FMC CORPORATION, priority 2015, dated 2024)", "experiment_in_all_cases": "Test C preemergence", "assay_type_in_all_cases": "in vivo", "key": {"[1]": {"test_system": "Galium (catchweed bedstraw, Galium aparine)", "conditions": "for Plant response rating, Galium: scale 0 to 100, 0 no effect, 100 complete control", "procedure,_shortened": "(§1)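 Preemergence application to seeds in loam/sand soil, or foliar (postemergence) application to plants 2–18 cm tall in peat moss/vermiculite medium; surfactant-containing non-phytotoxic solvent vehicle; greenhouse. Visual injury vs controls at 13–15 d; 0 = no effect, 100 = complete control.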"}, "[2]": {"test_system": "barnyardgrass (Echinochloa crus-galli)", "conditions": "for Plant response rating, Barnyardgrass: scale 0 to 100, 0 no effect, 100 complete control", "procedure,_shortened": "as §1"}, "[3]": {"test_system": "blackgrass (Alopecurus myosuroides)", "conditions": "for Plant response rating, Blackgrass: scale 0 to 100, 0 no effect, 100 complete control", "procedure,_shortened": "as §1"}, "corn (Zea mays)": {"test_system": "corn (Zea mays)", "conditions": "for Plant response rating, Corn: scale 0 to 100, 0 no effect, 100 complete control", "procedure,_shortened": "as §1"}, "[4]": {"test_system": "crabgrass, large (large crabgrass, Digitaria sanguinalis)", "conditions": "for Plant response rating, Crabgrass, Large: scale 0 to 100, 0 no effect, 100 complete control", "procedure,_shortened": "as §1"}, "[5]": {"test_system": "foxtail, giant (giant foxtail, Setaria faberii)", "conditions": "for Plant response rating, Foxtail, Giant: scale 0 to 100, 0 no effect, 100 complete control", "procedure,_shortened": "as §1"}, "[6]": {"test_system": "johnsongrass (Sorghum halepense)", "conditions": "for Plant response rating, Johnsongrass: scale 0 to 100, 0 no effect, 100 complete control", "procedure,_shortened": "as §1"}, "[7]": {"test_system": "lambsquarters (Chenopodium album)", "conditions": "for Plant response rating, Lambsquarters: scale 0 to 100, 0 no effect, 100 complete control", "procedure,_shortened": "as §1"}, "[8]": {"test_system": "morningglory (Ipomoea coccinea)", "conditions": "for Plant response rating, Morningglory: scale 0 to 100, 0 no effect, 100 complete control", "procedure,_shortened": "as §1"}, "[9]": {"test_system": "nutsedge, yellow (yellow nutsedge, Cyperus esculentus)", "conditions": "for Plant response rating, Nutsedge, Yellow: scale 0 to 100, 0 no effect, 100 complete control", "procedure,_shortened": "as §1"}, "[10]": {"test_system": "oilseed rape (Brassica napus)", "conditions": "for Plant response rating, Oilseed Rape: scale 0 to 100, 0 no effect, 100 complete control", "procedure,_shortened": "as §1"}, "[11]": {"test_system": "pigweed (Amaranthus retroflexus)", "conditions": "for Plant response rating, Pigweed: scale 0 to 100, 0 no effect, 100 complete control", "procedure,_shortened": "as §1"}, "[12]": {"test_system": "ragweed (common ragweed, Ambrosia elatior)", "conditions": "for Plant response rating, Ragweed: scale 0 to 100, 0 no effect, 100 complete control", "procedure,_shortened": "as §1"}, "[13]": {"test_system": "ryegrass, Italian (Italian ryegrass, Lolium multiflorum)", "conditions": "for Plant response rating, Ryegrass, Italian: scale 0 to 100, 0 no effect, 100 complete control", "procedure,_shortened": "as §1"}, "soybean (Glycine max)": {"test_system": "soybean (Glycine max)", "conditions": "for Plant response rating, Soybean: scale 0 to 100, 0 no effect, 100 complete control", "procedure,_shortened": "as §1"}, "[14]": {"test_system": "velvetleaf (Abutilon theophrasti)", "conditions": "for Plant response rating, Velvetleaf: scale 0 to 100, 0 no effect, 100 complete control", "procedure,_shortened": "as §1"}, "[15]": {"test_system": "waterhemp (common waterhemp, Amaranthus rudis)", "conditions": "for Plant response rating, Waterhemp: scale 0 to 100, 0 no effect, 100 complete control", "procedure,_shortened": "as §1"}, "[16]": {"test_system": "wheat (winter wheat, Triticum aestivum)", "conditions": "for Plant response rating, Wheat: scale 0 to 100, 0 no effect, 100 complete control", "procedure,_shortened": "as §1"}, "[17]": {"conditions": "31 g ai/ha, 0 is no effect, 100 is complete control"}}}
{"smiles": "O=C1NCC(c2cccc(C(F)(F)F)c2F)C1C(=O)Nc1cccc(F)c1F", "note": "(stereo not drawn) [Compound 591]", "values": [{"measurement": "Plant response rating (scale of 0 to 100), Galium", "setting": "[1]; [17]", "value": 5}, {"measurement": "Plant response rating, Galium", "setting": "[1]; 62 g ai/ha", "value": 50}, {"measurement": "Plant response rating, Galium", "setting": "[1]; 125 g ai/ha", "value": 50}, {"measurement": "Plant response rating, Galium", "setting": "[1]; 250 g ai/ha", "value": 80}, {"measurement": "Plant response rating (scale of 0 to 100), Barnyardgrass", "setting": "[2]; [17]", "value": 90}, {"measurement": "Plant response rating, Barnyardgrass", "setting": "[2]; 62 g ai/ha", "value": 90}, {"measurement": "Plant response rating, Barnyardgrass", "setting": "[2]; 125 g ai/ha", "value": 95}, {"measurement": "Plant response rating, Barnyardgrass", "setting": "[2]; 250 g ai/ha", "value": 95}, {"measurement": "Plant response rating (scale of 0 to 100), Blackgrass", "setting": "[3]; [17]", "value": 30}, {"measurement": "Plant response rating, Blackgrass", "setting": "[3]; 62 g ai/ha", "value": 85}, {"measurement": "Plant response rating, Blackgrass", "setting": "[3]; 125 g ai/ha", "value": 90}, {"measurement": "Plant response rating, Blackgrass", "setting": "[3]; 250 g ai/ha", "value": 90}, {"measurement": "Plant response rating (scale of 0 to 100), Corn", "setting": "corn (Zea mays); [17]", "value": 45}, {"measurement": "Plant response rating, Corn", "setting": "corn (Zea mays); 62 g ai/ha", "value": 70}, {"measurement": "Plant response rating, Corn", "setting": "corn (Zea mays); 125 g ai/ha", "value": 60}, {"measurement": "Plant response rating, Corn", "setting": "corn (Zea mays); 250 g ai/ha", "value": 80}, {"measurement": "Plant response rating (scale of 0 to 100), Crabgrass, Large", "setting": "[4]; [17]", "value": 90}, {"measurement": "Plant response rating, Crabgrass, Large", "setting": "[4]; 62 g ai/ha", "value": 90}, {"measurement": "Plant response rating, Crabgrass, Large", "setting": "[4]; 125 g ai/ha", "value": 90}, {"measurement": "Plant response rating, Crabgrass, Large", "setting": "[4]; 250 g ai/ha", "value": 95}, {"measurement": "Plant response rating (scale of 0 to 100), Foxtail, Giant", "setting": "[5]; [17]", "value": 85}, {"measurement": "Plant response rating, Foxtail, Giant", "setting": "[5]; 62 g ai/ha", "value": 90}, {"measurement": "Plant response rating, Foxtail, Giant", "setting": "[5]; 125 g ai/ha", "value": 90}, {"measurement": "Plant response rating, Foxtail, Giant", "setting": "[5]; 250 g ai/ha", "value": 95}, {"measurement": "Plant response rating (scale of 0 to 100), Johnsongrass", "setting": "[6]; [17]", "value": 35}, {"measurement": "Plant response rating, Johnsongrass", "setting": "[6]; 62 g ai/ha", "value": 55}, {"measurement": "Plant response rating, Johnsongrass", "setting": "[6]; 125 g ai/ha", "value": 75}, {"measurement": "Plant response rating, Johnsongrass", "setting": "[6]; 250 g ai/ha", "value": 85}, {"measurement": "Plant response rating (scale of 0 to 100), Lambsquarters", "setting": "[7]; [17]", "value": 10}, {"measurement": "Plant response rating, Lambsquarters", "setting": "[7]; 62 g ai/ha", "value": 20}, {"measurement": "Plant response rating, Lambsquarters", "setting": "[7]; 125 g ai/ha", "value": 35}, {"measurement": "Plant response rating, Lambsquarters", "setting": "[7]; 250 g ai/ha", "value": 70}, {"measurement": "Plant response rating (scale of 0 to 100), Morningglory", "setting": "[8]; [17]", "value": 10}, {"measurement": "Plant response rating, Morningglory", "setting": "[8]; 62 g ai/ha", "value": 30}, {"measurement": "Plant response rating, Morningglory", "setting": "[8]; 125 g ai/ha", "value": 40}, {"measurement": "Plant response rating, Morningglory", "setting": "[8]; 250 g ai/ha", "value": 65}, {"measurement": "Plant response rating (scale of 0 to 100), Nutsedge, Yellow", "setting": "[9]; [17]", "value": 0}, {"measurement": "Plant response rating, Nutsedge, Yellow", "setting": "[9]; 62 g ai/ha", "value": 0}, {"measurement": "Plant response rating, Nutsedge, Yellow", "setting": "[9]; 125 g ai/ha", "value": 0}, {"measurement": "Plant response rating, Nutsedge, Yellow", "setting": "[9]; 250 g ai/ha", "value": 0}, {"measurement": "Plant response rating (scale of 0 to 100), Oilseed Rape", "setting": "[10]; [17]", "value": 5}, {"measurement": "Plant response rating, Oilseed Rape", "setting": "[10]; 62 g ai/ha", "value": 20}, {"measurement": "Plant response rating, Oilseed Rape", "setting": "[10]; 125 g ai/ha", "value": 30}, {"measurement": "Plant response rating, Oilseed Rape", "setting": "[10]; 250 g ai/ha", "value": 85}, {"measurement": "Plant response rating (scale of 0 to 100), Pigweed", "setting": "[11]; [17]", "value": 10}, {"measurement": "Plant response rating, Pigweed", "setting": "[11]; 62 g ai/ha", "value": 45}, {"measurement": "Plant response rating, Pigweed", "setting": "[11]; 125 g ai/ha", "value": 60}, {"measurement": "Plant response rating, Pigweed", "setting": "[11]; 250 g ai/ha", "value": 75}, {"measurement": "Plant response rating (scale of 0 to 100), Ragweed", "setting": "[12]; [17]", "value": 0}, {"measurement": "Plant response rating, Ragweed", "setting": "[12]; 62 g ai/ha", "value": 20}, {"measurement": "Plant response rating, Ragweed", "setting": "[12]; 125 g ai/ha", "value": 35}, {"measurement": "Plant response rating, Ragweed", "setting": "[12]; 250 g ai/ha", "value": 70}, {"measurement": "Plant response rating (scale of 0 to 100), Ryegrass, Italian", "setting": "[13]; [17]", "value": 0}, {"measurement": "Plant response rating, Ryegrass, Italian", "setting": "[13]; 62 g ai/ha", "value": 10}, {"measurement": "Plant response rating, Ryegrass, Italian", "setting": "[13]; 125 g ai/ha", "value": 35}, {"measurement": "Plant response rating, Ryegrass, Italian", "setting": "[13]; 250 g ai/ha", "value": 75}, {"measurement": "Plant response rating (scale of 0 to 100), Soybean", "setting": "soybean (Glycine max); [17]", "value": 0}, {"measurement": "Plant response rating, Soybean", "setting": "soybean (Glycine max); 62 g ai/ha", "value": 0}, {"measurement": "Plant response rating, Soybean", "setting": "soybean (Glycine max); 125 g ai/ha", "value": 0}, {"measurement": "Plant response rating, Soybean", "setting": "soybean (Glycine max); 250 g ai/ha", "value": 0}, {"measurement": "Plant response rating (scale of 0 to 100), Velvetleaf", "setting": "[14]; [17]", "value": 0}, {"measurement": "Plant response rating, Velvetleaf", "setting": "[14]; 62 g ai/ha", "value": 0}, {"measurement": "Plant response rating, Velvetleaf", "setting": "[14]; 125 g ai/ha", "value": 20}, {"measurement": "Plant response rating, Velvetleaf", "setting": "[14]; 250 g ai/ha", "value": 20}, {"measurement": "Plant response rating (scale of 0 to 100), Waterhemp", "setting": "[15]; [17]", "value": 5}, {"measurement": "Plant response rating, Waterhemp", "setting": "[15]; 62 g ai/ha", "value": 30}, {"measurement": "Plant response rating, Waterhemp", "setting": "[15]; 125 g ai/ha", "value": 65}, {"measurement": "Plant response rating, Waterhemp", "setting": "[15]; 250 g ai/ha", "value": 70}, {"measurement": "Plant response rating (scale of 0 to 100), Wheat", "setting": "[16]; [17]", "value": 0}, {"measurement": "Plant response rating, Wheat", "setting": "[16]; 62 g ai/ha", "value": 10}, {"measurement": "Plant response rating, Wheat", "setting": "[16]; 125 g ai/ha", "value": 30}, {"measurement": "Plant response rating, Wheat", "setting": "[16]; 250 g ai/ha", "value": 70}]}
